Results reported in PubChem BioAssay (NCI).
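Protocol summary: plate cells (96-well), add compound at 5 concentrations, incubate 48 h, interpolate endpoints linearly. TGI: concentration producing complete growth inhibition.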

Key:
Assay in all cases: NCI-60 cell line screen, 48 h
MDA-MB-231 breast = system: MDA-MB-231 breast
SNB-19 CNS = system: SNB-19 CNS
K-562 leukemia = system: K-562 leukemia
MCF7 breast = system: MCF7 breast
RPMI-8226 leukemia = system: RPMI-8226 leukemia
KM12 colon = system: KM12 colon
SW-620 colon = system: SW-620 colon
TK-10 renal = system: TK-10 renal
PC-3 prostate = system: PC-3 prostate
SK-MEL-5 melanoma = system: SK-MEL-5 melanoma
SK-MEL-28 melanoma = system: SK-MEL-28 melanoma
LOX IMVI melanoma = system: LOX IMVI melanoma
HOP-92 NSCLC = system: HOP-92 NSCLC
NCI-H23 lung = system: NCI-H23 lung
ACHN renal = system: ACHN renal
BT-549 breast = system: BT-549 breast
SK-MEL-2 melanoma = system: SK-MEL-2 melanoma
A498 renal = system: A498 renal
MALME-3M melanoma = system: MALME-3M melanoma
OVCAR-8 ovarian = system: OVCAR-8 ovarian
UO-31 renal = system: UO-31 renal
SF-539 CNS = system: SF-539 CNS
OVCAR-3 ovarian = system: OVCAR-3 ovarian
EKVX NSCLC = system: EKVX NSCLC
SF-268 CNS = system: SF-268 CNS
SR leukemia = system: SR leukemia
HOP-62 NSCLC = system: HOP-62 NSCLC
HT29 colon = system: HT29 colon
NCI-H460 lung = system: NCI-H460 lung
M14 melanoma = system: M14 melanoma
OVCAR-5 ovarian = system: OVCAR-5 ovarian
SN12C renal = system: SN12C renal
NCI/ADR-RES ovarian = system: NCI/ADR-RES ovarian
MDA-MB-435 = system: MDA-MB-435
IGROV1 ovarian = system: IGROV1 ovarian
NCI-H522 lung = system: NCI-H522 lung
OVCAR-4 ovarian = system: OVCAR-4 ovarian
HCT-15 colon = system: HCT-15 colon
SF-295 CNS = system: SF-295 CNS
MDA-N = system: MDA-N
U251 CNS = system: U251 CNS
MOLT-4 leukemia = system: MOLT-4 leukemia
COLO 205 colon = system: COLO 205 colon
SNB-75 CNS = system: SNB-75 CNS
T-47D breast = system: T-47D breast
UACC-257 melanoma = system: UACC-257 melanoma
A549 NSCLC = system: A549 NSCLC
SK-OV-3 ovarian = system: SK-OV-3 ovarian
NCI-H226 lung = system: NCI-H226 lung
UACC-62 melanoma = system: UACC-62 melanoma
HCT-116 colon = system: HCT-116 colon
HCC-2998 colon = system: HCC-2998 colon
DU-145 prostate = system: DU-145 prostate
HS 578T breast = system: HS 578T breast
CAKI-1 renal = system: CAKI-1 renal
786-0 renal = system: 786-0 renal
HL-60(TB) leukemia = system: HL-60(TB) leukemia
CCRF-CEM leukemia = system: CCRF-CEM leukemia

Measured: TGI

Cc1oc2c(c1C)S(=O)(=O)C(C#N)=CN2
not listed: HL-60(TB) leukemia | CCRF-CEM leukemia
> 100 µM: all other assays above

COC(=O)c1c2c(c3[nH]c4ccccc4c3c1C(=O)OC)C(=O)C1=C(C2=O)C2(Cl)C(Cl)C(Cl)C1(Cl)C2(Cl)Cl (stereo not drawn)
90.9 µM: SF-295 CNS
3.09 µM: MDA-MB-435
6.84 µM: SF-268 CNS | SNB-75 CNS
17.5 µM: TK-10 renal
3.42 µM: MCF7 breast
2.75 µM: SK-MEL-5 melanoma | MDA-N
8.52 µM: IGROV1 ovarian
4.6 µM: ACHN renal
8.65 µM: UO-31 renal
7.48 µM: U251 CNS
2.72 µM: NCI-H522 lung
21.7 µM: HOP-62 NSCLC
3.19 µM: COLO 205 colon
4.34 µM: BT-549 breast
4.51 µM: SF-539 CNS
13.8 µM: NCI-H460 lung
2.63 µM: SR leukemia
5.09 µM: RPMI-8226 leukemia
4.04 µM: NCI-H23 lung
17.3 µM: KM12 colon
23.2 µM: K-562 leukemia
5.98 µM: SN12C renal
6.15 µM: CCRF-CEM leukemia
8.98 µM: OVCAR-3 ovarian
9.19 µM: CAKI-1 renal
10.8 µM: PC-3 prostate
3.68 µM: HOP-92 NSCLC
4.59 µM: UACC-62 melanoma
5.28 µM: OVCAR-8 ovarian
3.91 µM: LOX IMVI melanoma
3.67 µM: MOLT-4 leukemia
2.97 µM: SK-MEL-28 melanoma
7.19 µM: NCI/ADR-RES ovarian
37 µM: SK-OV-3 ovarian
7.59 µM: MDA-MB-231 breast
3.03 µM: A498 renal
4.05 µM: MALME-3M melanoma
8.07 µM: 786-0 renal
1.4 µM: SW-620 colon
6.31 µM: OVCAR-4 ovarian
7.78 µM: HL-60(TB) leukemia
> 100 µM: EKVX NSCLC | OVCAR-5 ovarian | A549 NSCLC | HCT-116 colon | DU-145 prostate
5.68 µM: M14 melanoma
7.07 µM: HT29 colon
16.3 µM: T-47D breast
20.8 µM: HS 578T breast
6.17 µM: HCC-2998 colon
24.7 µM: SNB-19 CNS

O=C(O)COc1cc(-c2ccccc2)nc2ccc(F)cc12
> 100 µM: all assays above
